Results: US20240041037A1, “DISINFECTANT AND USE THEREOF” (priority 2021, published 2024)

What was measured:
Type in all cases: cell-based
[1] = system: total germ count of walnut shell meal slurry; experiment: Germ content determination (Ph. Eur. 6.8, Chapter 2.6.12) of aqueous walnut shell meal slurry: total germ count
Method: (§1) Test Equipment: • A BF 720 incubator is used. • A spiral plater is used as a plating device, with which a predefined volume of the suspension to be checked for germs is applied to the culture medium. For example, an Eddy-Jet 2W spiral plater is used.
(§2) The germ count takes place in the screening by the Envirocheck® system for confirmation according to the Ph Eur.6.8. Chapter 2.6.12.
(§3) Neutralization: • A neutralization, if it is to be carried out, takes place using 50% NaOH.
(§4) Incubation: • Bacteria: 2-3 days at 30+/−2° C. in the corresponding incubators; • Yeast/fungus: 3-5 days at room temperature away from light.
Following a predefined time span T in minutes, one sample each was collected and incubated for 48 hours in an incubator in order to subsequently determine its germ load.
(§5) The germ count after incubation takes place using the Environcheck® test sticks immediately or in an outside laboratory. For the external check, the product is cooled and stored for at least 1 day at 8° C. and transferred in a polystyrene box.
(§6) The germ content determination is based on the Ph. Eur.6.8—germ content, Chapter 2.6.12
The subsequent incubation of the sample took place over 48 hours.
(§7) The sample was then again adjusted to pH 7 using sodium hydroxide solution and incubated in the incubator for 48 hours. The germs in the individual samples were subsequently counted again using the Envirocheck® system internally or using an outside institute by a previously cooled stored product for 1 day.
The germ count determination is based on the Ph. Eur. 6.8—Germ content, Chapter 2.6.12

Fungi = experiment: Germ content determination (Ph. Eur. 6.8, Chapter 2.6.12) of aqueous walnut shell meal slurry: fungi
Method: as §1, §2
(§8) Subculturing: • The subculturing is carried out by a spiral plater using a corresponding program, depending on the requirements (for example, in one program, higher germ quantities may be more easily broken down by the gradient of the applied product or, in another program, a greater amount may be applied, which drops the lower determination limit). • One (in the case of double samples, two) fungus culture medium and one bacteria culture medium each are taken for each sample. • Standard total germ count checks are performed with no double determination.
as §3, §4
(§9) . This amount was maintained at pH 2.9 in the subsequent tests. Following a predefined time span T in minutes, one sample each was collected and incubated for 48 hours in an incubator in order to subsequently determine its germ load. The time span T thus corresponds to the contact time of the disinfectant, in the present case only citric acid.
as §5, §6
as §7, with “[…]. The sample” for “The sample”
(§10) . The germ count determination is based on the Ph. Eur. 6.8—Germ content, Chapter 2.6.12

[2] = system: Bacteria (aerobic spore-formers); experiment: Germ content determination (Ph. Eur. 6.8, Chapter 2.6.12) of aqueous walnut shell meal slurry: bacteria
Method: as §1, §2, §8, §3, §4, §9, §5, §6
as §7, with “[…]. The sample” for “The sample”
as §10

Yeasts = experiment: Germ content determination (Ph. Eur. 6.8, Chapter 2.6.12) of aqueous walnut shell meal slurry: yeasts
Method: as §1, §2, §8, §3, §4, §9, §5, §6
as §7, with “[…]. The sample” for “The sample”
as §10

[3] = pH 2.9, contact time 15 minutes
[4] = pH 2.9, contact time 30 minutes
[5] = pH 2.9, contact time 45 minutes
[6] = pH 2.9, contact time 60 minutes

Compound	TGC (total germ count) [1, 3]	TGC (total germ count) [1, 4]	TGC (total germ count) [1, 5]	Fungi (Fungi; [3])	Fungi (Fungi; [4])	Fungi (Fungi; [5])	Fungi (Fungi; [6])	Bacteria [2, 3]	Bacteria [2, 4]	Bacteria [2, 5]	Bacteria [2, 6]	Yeasts (Yeasts; [3])	Yeasts (Yeasts; [4])	Yeasts (Yeasts; [5])	Yeasts (Yeasts; [6])	contact time after which germ load reduction clearly identifiable ([1]; pH 2.9) [min]
O=C(O)CC(O)(CC(=O)O)C(=O)O [citric acid]	250 CFU/g or mL	295 CFU/g or mL	235 CFU/g or mL	50 CFU/g or mL	55 CFU/g or mL	35 CFU/g or mL	20 CFU/g or mL	60 CFU/g or mL	100 CFU/g or mL	200 CFU/g or mL	170 CFU/g or mL	140 CFU/g or mL	140 CFU/g or mL	— (<7 CFU/g or mL)	35 CFU/g or mL	
CC(O)C(=O)O (stereo not shown) [lactic acid]																5
